Reference: US12595264B2, “Heterocyclic GLP-1 agonists” (Gasherbrum Bio, Inc., priority 2020, dated 2026)

Molecular target: T1, GLP-1 Receptor (Homo sapiens, UniProt P43220)
T1 construct: host or cells: HEK293/GLP1R/CRE-LUC (HEK293/CRE-Luc stably expressing GLP-1R)
Experiment: GLP-1R agonist cAMP stimulation assay (HEK293/GLP1R/CRE-LUC cells, HTRF cAMP dynamic 2 kit)
Assay type: cell-based
Details: HEK293/CRE-Luc cell line (HDB), 30 min incubation, read-out: GLP1R cAMP Stimulation DR: EC50 (nM) [Species: Human, Assay Cell Line: HDB]
Description: Activation of GLP-1 receptor is known to stimulate cyclic AMP (cAMP) production in cells which indicates primary coupling to the Gαs subunit of the G protein heterotrimeric complex.
To optimize functional activity directed toward Gαs coupling, a HEK293/CRE-Luc cell line developed by HDB stably expressing the GLP-1 Receptor was used. 200×concentration of compound working solutions were prepared (Agilent Technologies Bravo) with ½ log serial dilution in 384-well Echo LDV plate (Labcyte, Cat #LP-0200). 50 nL/well 200×concentration of compound working solutions were moved to 384-well white low volume plate (Greiner, Cat #784075) using Labcyte ECHO550. 1×10^5 cells/mL HEK293/GLP1R/CRE-LUC(HD Biosciences) cell suspensions prepared with assay buffer[DPBS containing 0.5 mM IBMX (Sigma, Cat #15879) and 0.1% BSA (GENVIEW, Cat #FA016-100g)], 10 uL cell suspensions were added to each well of previous generated assay plate which already contains 50n1 compound at 200× concentration using ThermoFisher Multidrop Combi (1000 cells/well). Seal the plate and incubate at 37° C. with 5% CO2 for 30 min.
After incubation the cAMP assay signal was generated using cAMP dynamic 2 Kit (Cisbio). 5 μL cAMP-d2 working solution was added to each well, followed with 5 μL Anti-cAMP antibody-cryptate working solution added to each well using ThermoFisher Multidrop Combi. Incubate at room temperature for 1 hour protected from light. Read the fluorescence at 665 and 615 nm with Reader PerkinElmer EnVision. % Activity=100%×(mean RLU of test sample−mean RLU of vehicle control)/(mean RLU of MAX control−mean RLU of vehicle control))

T1 sequence (P43220 24-463): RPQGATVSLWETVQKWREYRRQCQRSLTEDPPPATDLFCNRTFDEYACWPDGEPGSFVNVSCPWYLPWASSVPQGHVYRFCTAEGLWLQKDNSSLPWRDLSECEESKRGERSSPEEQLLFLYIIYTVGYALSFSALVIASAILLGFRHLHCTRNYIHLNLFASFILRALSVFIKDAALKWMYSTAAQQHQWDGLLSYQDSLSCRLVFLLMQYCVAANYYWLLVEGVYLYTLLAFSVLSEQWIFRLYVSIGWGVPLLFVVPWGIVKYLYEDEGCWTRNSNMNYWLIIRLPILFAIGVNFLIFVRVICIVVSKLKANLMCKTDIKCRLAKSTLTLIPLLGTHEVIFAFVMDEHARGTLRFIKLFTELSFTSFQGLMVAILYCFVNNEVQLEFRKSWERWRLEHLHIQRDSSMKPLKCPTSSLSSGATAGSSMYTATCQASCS

First: CCP(=O)(CC)c1ccc(-n2ccn(-c3c(-c4cc(C)c(F)c(C)c4)nn4c3C(C)N(C(=O)c3cc5cc(C6CCOCC6)ccc5n3[C@@]3(c5noc(=O)[nH]5)C[C@@H]3C)CC4)c2=O)cc1NC (mixture of isomers) [Compound 108a, 3-((1S,2S)-1-(2-(3-(3-(4-(diethylphosphoryl)-3-(methylamino)phenyl)-2-oxo-2,3-dihydro-1H-imidazol-1-yl)-2-(4-fluoro-3,5-dimethylphenyl)-4-methyl-4,5,6,7-tetrahydropyrazolo[1,5-a]pyrazine-5-carbonyl)-5-(tetrahydro-2H-pyran-4-yl)-1H-indol-1-yl)-2-methylcyclopropyl)-1,2,4-oxadiazol-5(4H)-one]
Second: CCP(=O)(CC)c1ccc(-n2ccn(-c3c(-c4cc(C)c(F)c(C)c4)nn4c3C(C)N(C(=O)c3cc5cc(C6CCOCC6)ccc5n3C3(c5noc(=O)[nH]5)CC3)CC4)c2=O)cc1NC (stereo not shown) [Compound 104, 3-(1-(2-(3-(3-(4-(diethylphosphoryl)-3-(methylamino)phenyl)-2-oxo-2,3-dihydro-1H-imidazol-1-yl)-2-(4-fluoro-3,5-dimethylphenyl)-4-methyl-4,5,6,7-tetrahydropyrazolo[1,5-a]pyrazine-5-carbonyl)-5-(tetrahydro-2H-pyran-4-yl)-1H-indol-1-yl)cyclopropyl)-1,2,4-oxadiazol-5(4H)-one]
The EC50 of the first is 1.8-fold lower: 0.1 nM for the first, 0.18 nM for the second. The first is the more potent here.

First: Cc1cc(-c2nn3c(c2-n2ccn(-c4ccc5c(cnn5C)c4F)c2=O)C(C)N(C(=O)c2cc4cc(C5CCOCC5)ccc4n2[C@@]2(c4noc(=O)[nH]4)C[C@@H]2C)CC3)cc(C)c1F (single isomer, unassigned) [Compound 110a]
Second: Cc1cc(-c2nn3c(c2-n2ccn(-c4ccc5c(cnn5C)c4F)c2=O)C(C)N(C(=O)c2cc4cc([C@H]5CCOC(C)(C)C5)ccc4n2[C@@]2(c4noc(=O)[nH]4)C[C@@H]2C)CC3)cc(C)c1F (single isomer, unassigned) [Compound 117a]
The EC50 of the first is 1.9-fold higher: 0.13 nM for the first, 0.07 nM for the second. The second is the more potent here.

Compared with `CCP(=O)(CC)c1ccc(-n2ccn(-c3c(-c4cc(C)c(F)c(C)c4)nn4c3C(C)N(C(=O)c3cc5cc(C6CCOCC6)ccc5n3[C@@]3(c5noc(=O)[nH]5)C[C@@H]3C)CC4)c2=O)cc1NC` (single isomer, unassigned) [Compound 111a], `CCP(=O)(CC)c1ccc(-n2ccn(-c3c(-c4cc(C)c(F)c(C)c4)nn4c3C(C)N(C(=O)c3cc5cc([C@H]6CCOC(C)(C)C6)ccc5n3[C@@]3(c5noc(=O)[nH]5)C[C@@H]3C)CC4)c2=O)cc1NC` (single isomer, unassigned) [Compound 113a] is 4-fold higher in EC50: 0.042 nM for the first, 0.17 nM for the second. The first is the more potent here.

Compared with `CCP(=O)(CC)c1ccc(-n2ccn(-c3c(-c4cc(C)c(F)c(C)c4)nn4c3C(C)N(C(=O)c3cc5cc(C6CCOCC6)ccc5n3[C@@]3(c5noc(=O)[nH]5)C[C@@H]3C)CC4)c2=O)cc1NC` (single isomer, unassigned) [Compound 112a], `CCP(=O)(CC)c1ccc(-n2ccn(-c3c(-c4cc(C)c(F)c(C)c4)nn4c3C(C)N(C(=O)c3cc5cc(C6CCC(F)(F)CC6)ccc5n3[C@@]3(c5noc(=O)[nH]5)C[C@@H]3C)CC4)c2=O)cc1NC` (single isomer, unassigned) [Compound 116a] is 100-fold lower in EC50: 42 nM for the first, 0.42 nM for the second.

Going from `CCP(=O)(CC)c1ccc(-n2ccn(-c3c(-c4cc(C)c(F)c(C)c4)nn4c3C(C)N(C(=O)c3cc5cc(N6CCOCC6)ccc5n3[C@@]3(c5noc(=O)[nH]5)C[C@@H]3C)CC4)c2=O)cc1NC` (single isomer, unassigned) [Compound 114a] to `CCP(=O)(CC)c1ccc(-n2ccn(-c3c(-c4cc(C)c(F)c(C)c4)nn4c3C(C)N(C(=O)c3cc5cc(N6CCOC(C)(C)C6)ccc5n3[C@@]3(c5noc(=O)[nH]5)C[C@@H]3C)CC4)c2=O)cc1NC` (single isomer, unassigned) [Compound 115a], the EC50 rises from 0.068 nM to 0.15 nM (2.2-fold).

Going from `Cc1cc(-c2nn3c(c2-n2ccn(-c4ccc5c(cnn5C)c4)c2=O)CN(C(=O)c2cc4cc(C5CCOCC5)ccc4n2C2(c4noc(=O)[nH]4)CC2)CC3)cc(C)c1F` [Compound 101, 3-(1-(2-(2-(4-fluoro-3,5-dimethylphenyl)-3-(3-(1-methyl-1H-indazol-5-yl)-2-oxo-2,3-dihydro-1H-imidazol-1-yl)-4,5,6,7-tetrahydropyrazolo[1,5-a]pyrazine-5-carbonyl)-5-(tetrahydro-2H-pyran-4-yl)-1H-indol-1-yl)cyclopropyl)-1,2,4-oxadiazol-5(4H)-one] to `Cc1cc(-c2nn3c(c2-n2ccn(-c4ccc5c(cnn5C)c4)c2=O)CN(C(=O)c2cc4cc(C5CCOCC5)ccc4n2C2(c4noc(=O)[nH]4)CCC2)CC3)cc(C)c1F` [Compound 102, 3-(1-(2-(2-(4-fluoro-3,5-dimethylphenyl)-3-(3-(1-methyl-1H-indazol-5-yl)-2-oxo-2,3-dihydro-1H-imidazol-1-yl)-4,5,6,7-tetrahydropyrazolo[1,5-a]pyrazine-5-carbonyl)-5-(tetrahydro-2H-pyran-4-yl)-1H-indol-1-yl)cyclobutyl)-1,2,4-oxadiazol-5(4H)-one], the EC50 rises from 3.41 nM to 3300 nM (970-fold). The first is the more potent here.

Going from `Cc1cc(-c2nn3c(c2-n2ccn(-c4ccc5c(cnn5C)c4)c2=O)C(C)N(C(=O)c2cc4cc(C5CCOCC5)ccc4n2C2(c4noc(=O)[nH]4)CC2)CC3)cc(C)c1F` (stereo not shown) [Compound 103, 3-(1-(2-(2-(4-fluoro-3,5-dimethylphenyl)-4-methyl-3-(3-(1-methyl-1H-indazol-5-yl)-2-oxo-2,3-dihydro-1H-imidazol-1-yl)-4,5,6,7-tetrahydropyrazolo[1,5-a]pyrazine-5-carbonyl)-5-(tetrahydro-2H-pyran-4-yl)-1H-indol-1-yl)cyclopropyl)-1,2,4-oxadiazol-5(4H)-one] to `Cc1cc(-c2nn3c(c2-n2ccn(-c4ccc5c(cnn5C)c4)c2=O)CN(C(=O)c2cc4cc(C5CCOCC5)ccc4n2[C@@]2(c4noc(=O)[nH]4)C[C@@H]2C)CC3)cc(C)c1F` [Compound 105a, 3-((1S,2S)-1-(2-(2-(4-fluoro-3,5-dimethylphenyl)-3-(3-(1-methyl-1H-indazol-5-yl)-2-oxo-2,3-dihydro-1H-imidazol-1-yl)-4,5,6,7-tetrahydropyrazolo[1,5-a]pyrazine-5-carbonyl)-5-(tetrahydro-2H-pyran-4-yl)-1H-indol-1-yl)-2-methylcyclopropyl)-1,2,4-oxadiazol-5(4H)-one], the EC50 rises from 0.29 nM to 1.86 nM (6.4-fold).

First: Cc1cc(-c2nn3c(c2-n2ccn(-c4ccc5c(cnn5C)c4)c2=O)CN(C(=O)c2cc4cc(C5CCOCC5)ccc4n2[C@@]2(C(=O)O)C[C@@H]2C)CC3)cc(C)c1F [Compound 106a, (1S,2S)-1-(2-(2-(4-fluoro-3,5-dimethylphenyl)-3-(3-(1-methyl-1H-indazol-5-yl)-2-oxo-2,3-dihydro-1H-imidazol-1-yl)-4,5,6,7-tetrahydropyrazolo[1,5-a]pyrazine-5-carbonyl)-5-(tetrahydro-2H-pyran-4-yl)-1H-indol-1-yl)-2-methylcyclopropanecarboxylic acid]
Second: Cc1cc(-c2nn3c(c2-n2ccn(-c4ccc5c(cnn5C)c4F)c2=O)C(C)N(C(=O)c2cc4cc(C5CCOCC5)ccc4n2[C@@]2(c4noc(=O)[nH]4)C[C@@H]2C)CC3)cc(C)c1F (stereo partly drawn) [Compound 109a, 3-((1S,2S)-1-(2-(3-(3-(4-fluoro-1-methyl-1H-indazol-5-yl)-2-oxo-2,3-dihydro-1H-imidazol-1-yl)-2-(4-fluoro-3,5-dimethylphenyl)-4-methyl-4,5,6,7-tetrahydropyrazolo[1,5-a]pyrazine-5-carbonyl)-5-(tetrahydro-2H-pyran-4-yl)-1H-indol-1-yl)-2-methylcyclopropyl)-1,2,4-oxadiazol-5(4H)-one]
The EC50 of the first is 630-fold higher: 113 nM for the first, 0.18 nM for the second. The second is the more potent here.

Same assay, conditions: HEK293/CRE-Luc cell line (HDB), 30 min incubation, read-out: GLP1R cAMP Stimulation DR: pEC50 (M) [Species: Human, Assay Cell Line: HDB] (converted)

Compared with `CNc1cc(-n2ccn(-c3c(-c4cc(C)c(F)c(C)c4)nn4c3C(C)N(C(=O)c3cc5cc(C6CCOCC6)ccc5n3[C@@]3(c5noc(=O)[nH]5)C[C@@H]3C)CC4)c2=O)ccc1P(C)(C)=O` (single isomer, unassigned) [Compound 118a], `Cc1cc(-c2nn3c(c2-n2ccn(-c4ccc5c(cnn5C)c4)c2=O)CN(C(=O)c2cc4cc(C5CCOCC5)ccc4n2C2(c4noc(=O)[nH]4)CC2)CC3)cc(C)c1F` [Compound 101, 3-(1-(2-(2-(4-fluoro-3,5-dimethylphenyl)-3-(3-(1-methyl-1H-indazol-5-yl)-2-oxo-2,3-dihydro-1H-imidazol-1-yl)-4,5,6,7-tetrahydropyrazolo[1,5-a]pyrazine-5-carbonyl)-5-(tetrahydro-2H-pyran-4-yl)-1H-indol-1-yl)cyclopropyl)-1,2,4-oxadiazol-5(4H)-one] is 100-fold higher in EC50: 0.0316 nM for the first, 3.31 nM for the second.

Work on `Cc1cc(-c2nn3c(c2-n2ccn(-c4ccc5c(cnn5C)c4)c2=O)CN(C(=O)c2cc4cc(C5CCOCC5)ccc4n2C2(c4noc(=O)[nH]4)CCC2)CC3)cc(C)c1F` [Compound 102, 3-(1-(2-(2-(4-fluoro-3,5-dimethylphenyl)-3-(3-(1-methyl-1H-indazol-5-yl)-2-oxo-2,3-dihydro-1H-imidazol-1-yl)-4,5,6,7-tetrahydropyrazolo[1,5-a]pyrazine-5-carbonyl)-5-(tetrahydro-2H-pyran-4-yl)-1H-indol-1-yl)cyclobutyl)-1,2,4-oxadiazol-5(4H)-one] yielded an EC50 of 2190 nM.
